Literature values as cited in US20150050358A1, “IMPLANT SUPPORT COMPOSITION AND METHODS OF USE” (REGENTS OF THE UNIVERSITY OF MINNESOTA, priority 2013, published 2015).

Conditions: antibiotic solution

pH of solution: 4.5-7.0 pH
SMILES: Cc1ncc([N+](=O)[O-])n1CCO [metronidazole]
